In data set [1] the target is T1, human mineralocorticoid receptor (MR) (Homo sapiens, UniProt P08235).
T1 construct: expressed in transfected cells; host or cells: CV-1 cells, transient transfection
T1 sequence (P08235 1-984): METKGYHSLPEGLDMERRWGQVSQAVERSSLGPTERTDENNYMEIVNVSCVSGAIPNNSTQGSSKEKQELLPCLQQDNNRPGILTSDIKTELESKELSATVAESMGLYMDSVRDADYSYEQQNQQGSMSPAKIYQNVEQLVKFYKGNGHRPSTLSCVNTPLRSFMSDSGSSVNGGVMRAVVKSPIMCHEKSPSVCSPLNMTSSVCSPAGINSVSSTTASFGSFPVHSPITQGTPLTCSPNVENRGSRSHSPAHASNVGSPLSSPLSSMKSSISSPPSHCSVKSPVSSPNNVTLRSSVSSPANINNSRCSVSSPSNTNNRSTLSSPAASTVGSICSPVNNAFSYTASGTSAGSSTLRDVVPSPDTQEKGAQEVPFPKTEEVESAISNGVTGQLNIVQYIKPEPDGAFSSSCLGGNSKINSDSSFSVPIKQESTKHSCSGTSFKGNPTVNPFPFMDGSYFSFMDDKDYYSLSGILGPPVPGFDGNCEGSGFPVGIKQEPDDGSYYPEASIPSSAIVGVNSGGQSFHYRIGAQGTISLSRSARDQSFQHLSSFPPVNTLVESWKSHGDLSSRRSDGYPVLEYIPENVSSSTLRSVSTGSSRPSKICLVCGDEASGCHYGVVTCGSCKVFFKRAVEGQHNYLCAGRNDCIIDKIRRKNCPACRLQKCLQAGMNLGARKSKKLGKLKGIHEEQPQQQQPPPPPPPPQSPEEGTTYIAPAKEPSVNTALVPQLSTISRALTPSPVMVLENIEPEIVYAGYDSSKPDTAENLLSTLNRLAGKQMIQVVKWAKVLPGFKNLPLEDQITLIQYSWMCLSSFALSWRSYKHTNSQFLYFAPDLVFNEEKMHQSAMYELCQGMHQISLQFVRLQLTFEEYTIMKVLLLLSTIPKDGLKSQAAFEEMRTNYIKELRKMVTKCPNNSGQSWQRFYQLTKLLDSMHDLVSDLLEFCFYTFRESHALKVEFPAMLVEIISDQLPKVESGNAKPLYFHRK
Description: Co-transfection assay, MR antagonist activity, CV-1 cells (pRShMR). In kind it is cell-based. As to conditions: antagonist mode; for MR Antagonist CV-1 Cells Efficacy (%): % maximal inhibition; for IC50: read-out: MR Antagonist CV-1 Cells Potency.

Data set [2] deals with T2, human glucocorticoid receptor alpha (GRα) (Homo sapiens, UniProt P04150).
T2 construct: made in house; crude extract used
T2 sequence (P04150 1-777): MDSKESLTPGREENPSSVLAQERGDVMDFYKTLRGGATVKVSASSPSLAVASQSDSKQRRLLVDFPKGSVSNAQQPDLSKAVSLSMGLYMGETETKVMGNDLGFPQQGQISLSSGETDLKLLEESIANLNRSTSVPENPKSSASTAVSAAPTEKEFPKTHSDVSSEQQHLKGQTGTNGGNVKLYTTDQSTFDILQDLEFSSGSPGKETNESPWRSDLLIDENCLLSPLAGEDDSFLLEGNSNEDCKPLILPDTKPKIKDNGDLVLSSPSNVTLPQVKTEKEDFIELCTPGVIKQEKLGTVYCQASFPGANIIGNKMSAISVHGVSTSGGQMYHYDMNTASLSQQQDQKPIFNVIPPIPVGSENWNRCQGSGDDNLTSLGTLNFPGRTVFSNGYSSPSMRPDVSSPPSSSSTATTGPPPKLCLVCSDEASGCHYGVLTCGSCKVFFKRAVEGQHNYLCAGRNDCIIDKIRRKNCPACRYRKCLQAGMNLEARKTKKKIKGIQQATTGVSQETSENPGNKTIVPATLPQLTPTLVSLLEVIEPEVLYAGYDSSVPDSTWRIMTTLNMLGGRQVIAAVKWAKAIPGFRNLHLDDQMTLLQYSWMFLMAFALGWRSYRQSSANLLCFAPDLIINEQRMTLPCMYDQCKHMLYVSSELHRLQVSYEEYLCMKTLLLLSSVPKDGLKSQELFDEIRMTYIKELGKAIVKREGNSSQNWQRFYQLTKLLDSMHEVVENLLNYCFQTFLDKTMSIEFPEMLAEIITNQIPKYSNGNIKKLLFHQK
Briefly: GR binding assay, baculovirus extract, [3H] dexamethasone. As to conditions: competition with [3H] dexamethasone, 4° C., 16 hours; read-out: GR Binding K1.

Data set [3] addresses T3, human glucocorticoid receptor (GR) (Homo sapiens, UniProt P04150).
T3 construct: expressed in transfected cells; host or cells: CV-1 cells, transient transfection
T3 sequence (P04150 1-777): T2 sequence (P04150 1-777)
Briefly: Co-transfection assay, GR antagonist activity, CV-1 cells (pRShGR). In kind it is cell-based. As to conditions: antagonist mode; for GR Antagonist CV-1 Cells Efficacy (%): % maximal inhibition; for IC50: read-out: GR Antagonist CV-1 Cells Potency.

For data set [4], the system named is ventral prostates (VP) and seminal vesicles (SV) of immature castrated rats. Description: Immature castrated male rat model (antiandrogen activity). In kind it is in vivo. As to conditions: co-administered with 0.1 mg of TP.
Description: Since the male sex organs are the tissues most responsive to modulation of androgen activity, this model is used to determine the androgen-dependent growth of the sex accessory organs in immature castrated rats.
Five days after surgery, animals groups were dosed for 3 days as follows:
At the end of the 3-day treatment, the animals were sacrificed, and the ventral prostates (VP) and seminal vesicles (SV) were collected and weighed. To compare data from different experiments, the sexual organ weights were first standardized as mg per 100 g of body weight, and the increase in organ weight induced by TP was considered as the maximum increase (100%). Super-anova (one factor) was used for statistical analysis.
The gain and loss of sexual organ weights reflect the changes of cell number (DNA content) and cell mass (protein content), depending upon the serum androgen concentration. […] Therefore, measurement of organ wet weights is sufficient to indicate the bioactivity of androgens and androgen antagonists.
For the next data set, the target named is T4, human AR (Homo sapiens, UniProt P10275).
T4 construct: expressed in transfected cells; host or cells: COS-1 cells, transient transfection
T4 sequence (P10275 1-920): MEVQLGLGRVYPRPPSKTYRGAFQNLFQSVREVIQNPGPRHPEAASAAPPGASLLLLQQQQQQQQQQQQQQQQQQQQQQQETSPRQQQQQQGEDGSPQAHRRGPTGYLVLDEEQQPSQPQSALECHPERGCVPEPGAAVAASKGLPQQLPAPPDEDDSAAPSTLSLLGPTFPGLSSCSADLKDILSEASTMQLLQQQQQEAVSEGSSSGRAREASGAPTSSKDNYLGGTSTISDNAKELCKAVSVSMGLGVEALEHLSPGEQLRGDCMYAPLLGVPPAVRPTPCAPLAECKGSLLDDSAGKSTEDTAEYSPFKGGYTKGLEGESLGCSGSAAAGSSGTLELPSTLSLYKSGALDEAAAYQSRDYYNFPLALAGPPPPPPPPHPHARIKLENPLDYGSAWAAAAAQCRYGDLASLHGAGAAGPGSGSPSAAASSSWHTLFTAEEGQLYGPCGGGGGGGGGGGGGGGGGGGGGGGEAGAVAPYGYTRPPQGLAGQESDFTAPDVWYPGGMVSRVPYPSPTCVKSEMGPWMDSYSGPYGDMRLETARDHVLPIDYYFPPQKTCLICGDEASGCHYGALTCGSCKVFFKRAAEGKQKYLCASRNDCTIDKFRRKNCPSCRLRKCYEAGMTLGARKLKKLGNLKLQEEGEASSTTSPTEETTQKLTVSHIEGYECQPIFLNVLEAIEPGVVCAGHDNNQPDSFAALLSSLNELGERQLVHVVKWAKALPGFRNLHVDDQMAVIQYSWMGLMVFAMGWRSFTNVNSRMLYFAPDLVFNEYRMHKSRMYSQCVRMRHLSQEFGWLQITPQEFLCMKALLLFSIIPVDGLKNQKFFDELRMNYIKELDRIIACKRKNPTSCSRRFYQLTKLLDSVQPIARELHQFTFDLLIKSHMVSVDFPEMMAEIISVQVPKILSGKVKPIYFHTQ
Description: AR whole cell binding assay, transfected COS-1 cells, 3H-DHT.

Data set [5] deals with T5, human androgen receptor (AR) (Homo sapiens, UniProt P10275).
T5 construct: expressed in transfected cells; host or cells: CV-1 cells, transient transfection
T5 sequence (P10275 1-920): T4 sequence (P10275 1-920)
Briefly: Co-transfection assay, AR agonist and antagonist activity, CV-1 cells (pRShAR). In kind it is cell-based. The note with it: for AR Agonist CV-1 Cells Efficacy (%): relative to DHT; for AR Antagonist CV-1 Cells Efficacy (%): antagonist mode, % maximal inhibition.

Setting [6] is: read-out: AR Agonist CV-1 Cells Potency, Table 2, agonist mode, EC50.

Like-named read-outs stand apart in the source and are kept apart here.

As usually defined, the melting point is the temperature of the solid-liquid transition.

Turning to `CC1=CC(C)(C)Nc2ccc3c(c21)C(c1ccc(C)cc1)Oc1ccccc1-3` (racemic) [Compound 167, (R/S)-1,2-Dihydro-2,2,4-trimethyl-5-(4-Methylphenyl)-5H-chromeno[3,4-f]quinoline], the “MR Antagonist CV-1 Cells Efficacy (%)” value in data set [1] (Table 4) and in data set [1] (aldosterone at its EC50) was 61% in each case. The IC50 in data set [1] (aldosterone at its EC50) stood at 2000 nM; in data set [3] (dexamethasone at its EC50), 855 nM. Further, the Ki in data set [2] is 21 nM. The “GR Antagonist CV-1 Cells Efficacy (%)” value in data set [3] (Table 4) and in data set [3] (dexamethasone at its EC50) was 96% throughout.
For the compound `CC1=CC(C)(C)Nc2ccc3c(c21)C(c1ccsc1)Oc1ccccc1-3` (racemic) [Compound 170, (R/S)-1,2-Dihydro-2,2,4-trimethyl-5-(thiophen-3-yl)-5H-chromeno[3,4-f]quinoline], the “MR Antagonist CV-1 Cells Efficacy (%)” value in data set [1] (Table 4) is on record as 84%. Further, the IC50 came out at 410 nM in data set [1] (aldosterone at its EC50) and 1550 nM in data set [3] (dexamethasone at its EC50). The Ki in data set [2] was 47 nM. For the same compound, the “GR Antagonist CV-1 Cells Efficacy (%)” value in data set [3] (Table 4) came to 94%.
Taken in the same sequence, the figures for `C=C1CC(C)(C)Nc2ccc3c(c21)C(c1cccc(F)c1)Oc1ccccc1-3` (racemic) [Compound 192, (R/S)-5-(3-Fluorophenyl)-1,2,3,4-tetrahydro-2,2-dimethyl-4-methylidene-5H-chromeno[3,4-f]quinoline] were 70%, 320 nM, 280 nM, 214 nM and 81%.
Compound `CC1=CC(C)(C)Nc2ccc3c(c21)C(c1cc(F)cc(Br)c1)Oc1ccccc1-3` (racemic) [Compound 351, (R/S)-5-(3-Bromo-5-Fluorophenyl)-1,2-dihydro-2,2,4-trimethyl-5H-chromeno[3,4-f]quinoline] registered a melting point of 82 to 84 °C.
Take `CC1=CC(C)(C)Nc2c1cc1c(C(F)(F)F)cc(=O)[nH]c1c2C` [Compound 255, 1,2-Dihydro-2,2,4,10-tetramethyl-6-trifluoromethyl-8-pyridono[5,6-g]quinoline]: the “AR antagonist activity: suppression of testosterone-mediated increases in the weights of VP and SV” value in data set [4] is “exhibited AR antagonist activity”.
`CC1=CC(C)(C)Nc2cc3oc(=O)cc(C(F)(F)C(F)(F)F)c3cc21` [Compound 256, 1,2-Dihydro-2,2,4-trimethyl-6-(1,1,2,2,2-pentafluoroethyl)-8-pyranono[5,6-g]quinoline]: the Ki at human AR was 4500 nM. The EC50 in data set [5] and in data set [5] (setting [6]) was > 10 µM throughout. In data set [5], this compound had an IC50 of 62 nM. For the same compound, the “AR Agonist CV-1 Cells Efficacy (%)” value was “na (na = not active (i.e. efficacy of <20 and potency of >10,000))” in data set [5] (Table 2, agonist mode); “na (na = not active (i.e. efficacy of <20 and potency of >10,000))” in data set [5] (agonist mode). Also, the “AR Antagonist CV-1 Cells Efficacy (%)” value in data set [5] (Table 2) turned out to be 91%.
As to `CC1=CC(C)(C)Nc2cc3c(cc21)c(C(F)(F)F)cc(=O)n3C` [Compound 261, 1,2-Dihydro-2,2,4,9-tetramethyl-6-trifluoromethyl-8-pyridono[5,6-g]quinoline], in data set [4], the “AR antagonist activity: suppression of testosterone-mediated increases in the weights of VP and SV” value is listed as “exhibited AR antagonist activity”.
`CC1=CC(C)(C)N(C)c2cc3oc(=O)cc(C(F)(F)F)c3cc21` [Compound 265, 1,2-Dihydro-1,2,2,4-tetramethyl-6-trifluoromethyl-8-pyranono[5,6-g]quinoline] gave a Ki at human AR of 23 nM. Besides, the EC50 in data set [5] and in data set [5] (setting [6]) was > 10 µM in each case. This compound displayed an IC50 in data set [5] of 56 nM. In addition, the “AR Agonist CV-1 Cells Efficacy (%)” value in data set [5] (Table 2, agonist mode) was “na (na = not active (i.e. efficacy of <20 and potency of >10,000))”; in data set [5] (agonist mode), “na (na = not active (i.e. efficacy of <20 and potency of >10,000))”. Further, the “AR Antagonist CV-1 Cells Efficacy (%)” value in data set [5] (Table 2) came out at 78%.
